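GI50 = concentration required for 50% inhibition of growth. At the TGI there is no net growth.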
Experiments:
Assay in all cases: NCI tumour cell line growth inhibition, 384-well format
HCC-2998 colon = tested on: HCC-2998 colon
CCRF-CEM leukemia = tested on: CCRF-CEM leukemia
SW-620 colon = tested on: SW-620 colon
OVCAR-5 ovarian = tested on: OVCAR-5 ovarian
SF-295 CNS = tested on: SF-295 CNS
UO-31 renal = tested on: UO-31 renal
RPMI-8226 leukemia = tested on: RPMI-8226 leukemia
NCI-H226 lung = tested on: NCI-H226 lung
A549 NSCLC = tested on: A549 NSCLC
SR leukemia = tested on: SR leukemia
ACHN renal = tested on: ACHN renal
MDA-MB-231 breast = tested on: MDA-MB-231 breast
A498 renal = tested on: A498 renal

| Compound | GI50 (HCC-2998 colon) | TGI (HCC-2998 colon) | GI50 (CCRF-CEM leukemia) | TGI (CCRF-CEM leukemia) | GI50 (SW-620 colon) | TGI (SW-620 colon) | GI50 (OVCAR-5 ovarian) | TGI (OVCAR-5 ovarian) | GI50 (SF-295 CNS) | TGI (SF-295 CNS) | GI50 (UO-31 renal) | TGI (UO-31 renal) | GI50 (RPMI-8226 leukemia) | TGI (RPMI-8226 leukemia) | GI50 (NCI-H226 lung) | TGI (NCI-H226 lung) | GI50 (A549 NSCLC) | TGI (A549 NSCLC) | GI50 (SR leukemia) | TGI (SR leukemia) | further results |
| --- | --- | --- | --- | --- | --- | --- | --- | --- | --- | --- | --- | --- | --- | --- | --- | --- | --- | --- | --- | --- | --- |
| CS(=O)(=O)N1CCN(Cc2cc3nc(-c4cccc5[nH]ncc45)nc(N4CCOCC4)c3s2)CC1 | 723 nM | 14300 nM | 1800 nM | 6980 nM | 2420 nM | > 100000 nM | 553 nM | > 100000 nM | 454 nM | 3590 nM | 478 nM | 9800 nM | 393 nM | 1670 nM | 648 nM | 4900 nM | 533 nM | > 100000 nM | 1530 nM | 4010 nM | GI50 (ACHN renal): 460 nM; TGI (ACHN renal): 6920 nM; GI50 (MDA-MB-231 breast): 2130 nM; TGI (MDA-MB-231 breast): > 100000 nM; GI50 (A498 renal): 290 nM; TGI (A498 renal): 1590 nM |
| O=C(CCCCCCC(=O)N/N=C/c1ccc(N(c2ccccc2)c2ccccc2)cc1)NO | 1840 nM | 3870 nM | 979 nM | 2260 nM | 1420 nM | 2790 nM | 665 nM | 2090 nM | 1750 nM | 3370 nM | 1730 nM | 8200 nM | 260 nM | 574 nM | 187 nM | 365 nM | 1840 nM | 3830 nM | 144 nM | 321 nM | GI50 (ACHN renal): 1790 nM; TGI (ACHN renal): 3590 nM; GI50 (MDA-MB-231 breast): 1900 nM; TGI (MDA-MB-231 breast): 4600 nM; GI50 (A498 renal): 146 nM; TGI (A498 renal): 283 nM |

From PubChem BioAssay (NCI)
